“And” between values parts separate entries of the source, which are not always exact repeats. Identical values can stand only once. Like-named read-outs stand apart in the source and are kept apart here.
Columns and labels:
[1] = test system: β-adrenergic receptor; test: [^3 H]DHA saturation binding in prefrontal cortical homogenates from suicides and controls (Scatchard analysis); set-up: species or system human
Excerpt: (§1) Following the characterization and localization of a group effect (such as, for example, age, sex or suicide) by autoradiography, samples from at least one involved region are dissected from the relevant blocks and homogenized for saturation binding studies using well known techniques.
Fourteen suicide and 14 pair-matched control brains were collected over 3 years from the medical examiner's offices in New York City and Jaffa, ISRAEL. […] The results of the coroner's examination as well as the results of broad-spectrum toxicological tests performed by the forensic laboratory were made available within 8 weeks. Only drug-free and pathology-free brains were included. For each suicide brain, a control matched for sex and age group with a PMD under 48 hours was collected the same day or within a few days, so that the pairs are also matched for storage time. The brains from each pair were dissected or sectioned on the same day and receptors were labeled in the same experiment, by an experimenter blind to the identity of the samples.
(§2) The brains were removed at autopsy and the right hemisphere sliced in the coronal plane. The slices, about 2 cm thick, were examined for signs of pathology and frozen in powdered dry ice, then removed for long-term storage at -80° C. Grey matter from the most frontal slice (prefrontal cortex) was dissected with a scalpel and homogenized. Crude membrane preparations were made from the homogenates, divided and stored frozen for saturation binding assays. The other slices were used for autoradiography. Eight concentrations of [^3 H]DHA (New England Nuclear, specific activity: 72 Ci/mmol), ranging from 0.1 to 4 nM were incubated with samples of the membrane preparations, with parallel incubates containing 10^-6 M propranolol to establish non-specific binding (Biegon et al., Life Sci. 32:2015-2022 ;(1983)); Enna et al., J. Neurochem. 28:233-236 (1983)). β-Receptor subtypes were distinguished by coincubation of the radioligand 10^-6 M concentrations of either zinterol, a […] blocker, or […] blocker, in 5 out of the 10 pairs included in this part of the study (Ecker et al., Int. Catecholamine Symp. Abstr. 6:52 (1987)). The affinity (Kd and maximal density (Bmax) of the receptors were derived from Scatchard analysis (Scatchard G., Ann. N.Y. Acad. Sci. 51:660-672 (1949)) of the binding data and protein was assayed by the method of Lowry et al.(Lowry et al., J. Biol. Chem. 193:265-275 (1951)).
The binding characteristics of βARs were studied in prefrontal cortical homogenates from 10 pairs. The region corresponds to Brodmann's areas 9 and 10.

[2] = target: T1, β1-receptors (Homo sapiens, UniProt P08588); test: [^3 H]DHA saturation binding in prefrontal cortical homogenates, β1-receptors
T1 construct: Crude membrane preparations were made from the homogenates; from tissue; host or cells: human post-mortem prefrontal cortex (grey matter), crude membranes
Excerpt: as §1, §2

[3] = target: T2, β2-receptors (Homo sapiens, UniProt P07550); test: [^3 H]DHA saturation binding in prefrontal cortical homogenates, β2-receptors
T2 construct: Crude membrane preparations were made from the homogenates; from tissue; host or cells: human post-mortem prefrontal cortex (grey matter), crude membranes
Excerpt: as §1, §2

[4] = test system: βAR; test: ^3 H-DHA saturation binding on homogenates of frontal superior gyrus, total; set-up: species or system human; details: 3 brains
[5] = test system: β1 receptor subtype; test: ^3 H-DHA saturation binding on homogenates of frontal superior gyrus, β1; set-up: species or system human; details: 3 brains, 0.1 μM zinterol or metoprolol for subtype differentiation
Procedure: as §1
(§3) Based on 3 brains, a total Bmax of 50-100 fm/mg protein was calculated, with the β1 receptor subtype accounting for the majority of the sites (Bmax: 40-60 fm/mg protein) and a smaller β2 receptor fraction (Bmax: 25-40 fm/mg protein). The Bmax values for the two subtypes added up to total specific binding in each individual brain, confirming the use of the two blocker concentrations for receptor subtype differentiation.

[6] = test system: β2 receptor; test: ^3 H-DHA saturation binding on homogenates of frontal superior gyrus, β2; set-up: species or system human; details: 3 brains, 0.1 μM zinterol or metoprolol for subtype differentiation
Procedure: as §1, §3

[7] = test system: β1 receptors; test: autoradiographic mapping of β1 receptors (iodopindolol in the presence of zinterol); assay type: binding, human; details: FIG. 3
Procedure: (§4) Slides holding tissue sections are incubated for about 70 min at approximately 25° C. with 0.15 nM ^125 I-iodopindolol (New England Nuclear, 2200 Ci/mmole) in 25 mM Tris buffer, pH 7.5, containing 150 mM NaCl. Nonspecific binding is determined in the presence of 1 μM propranolol (see Examples, below). Zinterol, a selective β2 blocker, or metoprolol, a selective β1 antagonist, are added to the incubation buffer at 0.1 μM to achieve selective labeling of the β1 and β2 receptor subtypes, respectively. The incubation is followed by three 20 min washes in the same ice cold buffer. Slides are then dipped in ice cold distilled water to remove buffer salts, dried on a 50° C. slide warmer and apposed to ^3 H-sensitive film (Amersham ^3 H-hyperfilm) for 48-96 hours. The film is coexposed to commercial iodine standards (available from Amersham, for example). Film is developed manually using standard developer and fixer such as those available from the Eastman-Kodak Company. […]
(§5) Based on 3 brains, a total Bmax of 50-100 fm/mg protein was calculated, with the β1 receptor subtype accounting for the majority of the sites (Bmax: 40-60 fm/mg protein) and a smaller β2 receptor fraction (Bmax: 25-40 fm/mg protein). […]

[8] = test system: β2 receptors; test: autoradiographic mapping of β2 receptors (iodopindolol in the presence of metoprolol); assay type: binding, human; details: FIG. 4
Procedure: as §4, §5

[9] = test system: βAR; test: in vivo autoradiography of brain distribution and kinetics; set-up: species or system rat
Procedure: In vivo autoradiography was been used to study brain distribution and kinetics of iodopindolol. Groups of rats (3 per treatment/time) were injected intravenously (i.v.) in the tail vein with 250 μCi/kg ^125 I-iodopindolol, either alone or 5 min after an intraperitoneal injection of the βAR antagonist (beta blocker) propranolol (5 mg/kg), to define nonspecific binding. Animals were sacrificed by decapitation 15, 30, 60 and 90 minutes post- injection and the brains quickly removed. The right hemisphere and a blood sample were used for direct counting while the left hemisphere was frozen immediately on dry ice and then sectioned sagittally. Sections were apposed to hyperfilm for one week.

[10] = whole body distribution, mice, 2 μCi; assay type: in vivo, mouse; details: conclusion from whole body distribution studies
Procedure: In a subsequent study, whole body distribution was examined in mice following tail vein injection of 2 μCi ^125 I-iodopindolol. Animals were sacrificed at various time points up to 22 hours post-injection. Percent injected dose (%ID) was determined in 11 organs, blood and urine. At one minute, lungs contained the highest %ID (17%), heart 3-4 %ID and brain 0.3%ID.

[11] = target: beta adrenergic receptors (βAR); details: βAR antagonist; Barovsky et al.; read-out: affinity; cited from earlier work
[12] = test system: serotonin receptors of the 5HT1B subtype; details: unlike most other βAR antagonists; cited from earlier work
[13] = test system: serotonin receptors of the 5HT1D subtype; details: unlike most other βAR antagonists; cited from earlier work
[14] = test system: β1; details: experimental animals; cited from earlier work
[15] = test system: β2; details: experimental animals; cited from earlier work
[16] = experimental animals; cited from earlier work

T1 sequence (P08588 whole entry): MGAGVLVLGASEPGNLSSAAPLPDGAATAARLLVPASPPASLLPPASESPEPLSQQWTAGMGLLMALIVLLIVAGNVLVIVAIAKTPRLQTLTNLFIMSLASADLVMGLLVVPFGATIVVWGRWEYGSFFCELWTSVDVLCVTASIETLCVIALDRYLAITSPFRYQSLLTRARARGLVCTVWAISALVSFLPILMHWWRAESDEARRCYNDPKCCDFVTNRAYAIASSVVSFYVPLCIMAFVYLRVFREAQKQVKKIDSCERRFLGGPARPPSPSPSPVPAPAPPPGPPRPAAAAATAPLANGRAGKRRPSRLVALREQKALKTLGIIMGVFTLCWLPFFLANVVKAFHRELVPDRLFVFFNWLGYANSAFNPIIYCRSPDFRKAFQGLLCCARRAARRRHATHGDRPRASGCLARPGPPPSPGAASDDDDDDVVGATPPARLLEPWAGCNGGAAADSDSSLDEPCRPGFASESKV
T2 sequence (P07550 whole entry, looked up): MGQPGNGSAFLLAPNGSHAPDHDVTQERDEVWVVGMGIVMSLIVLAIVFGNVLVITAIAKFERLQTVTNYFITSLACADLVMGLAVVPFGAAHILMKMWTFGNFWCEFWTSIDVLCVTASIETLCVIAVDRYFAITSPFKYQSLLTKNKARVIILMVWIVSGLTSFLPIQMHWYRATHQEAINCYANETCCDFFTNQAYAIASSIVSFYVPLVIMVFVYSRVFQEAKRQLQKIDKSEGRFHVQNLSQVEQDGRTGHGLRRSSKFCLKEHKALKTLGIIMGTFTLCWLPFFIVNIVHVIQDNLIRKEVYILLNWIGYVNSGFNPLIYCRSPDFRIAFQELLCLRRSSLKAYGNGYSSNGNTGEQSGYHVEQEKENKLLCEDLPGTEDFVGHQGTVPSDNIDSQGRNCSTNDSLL

In the case of `CCCc1ccccc1OCC(O)CNC(C)C` (stereo not drawn) [[^3 H]DHA, dihydroalprenolol], the Bmax ([1]; control, individual of matched pair, prefrontal cortex) is reported as 65 fm/mg P and 92 fm/mg P and 44 fm/mg P and 31 fm/mg P and 86 fm/mg P and 55 fm/mg P and 78 fm/mg P and 36 fm/mg P and 32 fm/mg P and 53 fm/mg P, the Kd ([1]; control, individual of matched pair, prefrontal cortex, read-out: Kd) is reported as 0.84 nM and 0.8 nM and 0.3 nM and 0.4 nM and 0.6 nM and 1.25 nM and 1.5 nM and the “Bmax, mean” value ([1]; control, mean of 10, SEM 7.9) is reported as 57.7 fm/mg P. For the same molecule, the “change in receptor affinity (Kd)” value ([1]; suicide vs control) was “no significant change in receptor affinity”, the “Increases in binding (range)” value ([1]; suicide vs control, 9 of the 10 pairs) was 30% to 115% and the “Increases in binding (mean)” value ([1]; suicide vs control, P<0.0003) was 48%. For the same molecule, the Bmax ([1]; suicide, individual of matched pair, prefrontal cortex) was 108 fm/mg P and 81 fm/mg P and 85 fm/mg P and 67 fm/mg P and 119 fm/mg P and 97 fm/mg P and 106 fm/mg P and 58 fm/mg P and 53 fm/mg P and 83 fm/mg P, the Kd ([1]; suicide, individual of matched pair, prefrontal cortex, read-out: Kd) was 0.98 nM and 0.9 nM and 1.5 nM and 1.2 nM and 1.4 nM and 1.1 nM and 1 nM and 0.4 nM and 0.8 nM and the Kd ([1]; suicide, mean of 10, SEM 0.1, read-out: Kd, mean) was 1 nM. For the same molecule, the “Bmax, mean” value ([1]; suicide, mean of 10, SEM 7.8, P < 0.0003) was 86.0 fm/mg P, the “Bmax, β1-receptors” value ([2]; control, n=5) was 37.7±9.3 fm/mg protein and the Kd ([2]; control, n=5) was 2.2 ± 0.5 nM. For the same molecule, the Kd ([2]; suicide, n=5) was 1.7 ± 0.3 nM, the “Bmax, β1-receptors” value ([2]; suicide, n=5, P<0.015) was 50.3±9.4 fm/mg protein and the “Bmax, β2-receptors” value ([3]; control) was 28.0±4.0 fm/mg protein. The Kd ([3]; control) was 1.1 ± 0.13 nM, the “Bmax, β2-receptors” value ([3]; suicide, p=0.1) was 39.2±3.1 fm/mg protein and the “total Bmax” value [4] was 50-100 fm/mg protein. For the same molecule, the “Bmax, β1 receptor subtype” value [5] was 40-60 fm/mg protein and the “Bmax, β2 receptor” value [6] was 25-40 fm/mg protein.
For `CC(C)NCC(O)COc1cccc2[nH]cc(I)c12` (stereo not drawn) [iodopindolol], the “distribution of β1 receptors” value [7] was “predominate in the prefrontal cortical external layers and in basal ganglia”, the “distribution of β2 receptors” value [8] was “found in internal cortical layers and predominate in hippocampus, cerebellum and white matter” and the “difference between total and nonspecific binding to brains” value ([9]; 15 and 30 minutes post-injection, 250 μCi/kg i.v., propranolol 5 mg/kg i.p.) was “very small difference”. For the same molecule, the “brain binding of radiolabel, propranolol pre-injected” value ([9]; 60 and 90 minutes, propranolol 5 mg/kg i.p.) was “low and uniform brain binding of radiolabel”, the “distribution of binding in the brain” value ([9]; 60 and 90 minutes, without propranolol) was “high levels in frontal cortex, caudate, and cerebellum; moderate to low levels in various hippocampal structures and thalamic nuclei; low levels in brain stem and medulla” and the “difference between iodopindolol alone and propranolol-pretreated animals” value ([9]; FIG. 5, 15 minutes post injection) was “no apparent difference”. The distribution of radioactivity ([9]; FIG. 6, 60 minutes post injection) was “relatively high levels in external cortical layers, caudate and cerebellum and relatively low levels in hippocampus”, the “brain levels of bound radiolabel” value ([9]; between 60 and 90 minutes) was “do not decline appreciably between 60 and 90 minutes” and the “specific labelling of βAR in the brain” value ([9]; one hour after injection) was “specifically labels βAR”. For the same molecule, the brain uptake [10] was “hindered by the blood brain barrier”, the Kd [11] was less than 1 nM and the “affinity for serotonin receptors, 5HT1B” value [12] was “low affinity”. For the same molecule, the “affinity for serotonin receptors, 5HT1D” value [13] was “low affinity”, the “labelling of βAR subtype β1 in vivo” value [14] was “labels both βAR subtypes, β1 and β2, in vivo” and the “labelling of βAR subtype β2 in vivo” value [15] was “labels both βAR subtypes, β1 and β2, in vivo”. For the same molecule, the “crossing of blood brain barrier” value [16] was “crosses the blood brain barrier”.

Source: patent US5304367A, “In vivo brain imaging agent and method for diagnosis of psychiatric disorders” (New York University, priority 1990, dated 1994)
